The text below walks through data of ChEMBL document CHEMBL1133677, “Carbonic anhydrase and matrix metalloproteinase inhibitors: sulfonylated amino acid hydroxamates with MMP inhibitory properties act as efficient inhibitors of CA isozymes I, II, and IV, and N-hydroxysulfonamides inhibit both these zinc enzymes” (J Med Chem, 2000).

By Ki is commonly meant a dissociation constant, usually derived from enzyme kinetics or from competition with a known ligand. A low value points to a stronger hold on the target.

The target of one test is Carbonic anhydrase 2 (Homo sapiens, UniProt P00918).
In another test the target is Carbonic anhydrase 1 (Homo sapiens, UniProt P00915).
For the next test, the target named is T1, Carbonic anhydrase 4 (Bos taurus, UniProt Q95323).
T1 sequence (Q95323 whole entry): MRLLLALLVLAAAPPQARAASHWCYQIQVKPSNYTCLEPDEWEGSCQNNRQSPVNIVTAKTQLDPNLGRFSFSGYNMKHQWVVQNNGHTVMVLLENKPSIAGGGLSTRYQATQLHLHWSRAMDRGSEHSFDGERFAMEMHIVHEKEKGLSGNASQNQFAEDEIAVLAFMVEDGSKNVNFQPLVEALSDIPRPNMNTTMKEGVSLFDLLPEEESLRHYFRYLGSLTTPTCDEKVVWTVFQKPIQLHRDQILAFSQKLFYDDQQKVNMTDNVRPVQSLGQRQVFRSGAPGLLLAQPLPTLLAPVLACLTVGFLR

Molecules are shown by their SMILES.

Carbonic anhydrase 1, sequence (P00915 whole entry): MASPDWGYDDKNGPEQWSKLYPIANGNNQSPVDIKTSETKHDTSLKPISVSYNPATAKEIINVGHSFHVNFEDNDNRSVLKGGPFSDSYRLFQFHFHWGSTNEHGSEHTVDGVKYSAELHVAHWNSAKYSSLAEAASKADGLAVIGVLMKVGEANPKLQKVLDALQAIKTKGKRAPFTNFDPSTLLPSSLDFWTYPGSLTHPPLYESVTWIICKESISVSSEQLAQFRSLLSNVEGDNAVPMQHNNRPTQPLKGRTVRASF

`CC(C(=O)NO)N(Cc1ccccc1Cl)S(=O)(=O)c1c(F)c(F)c(F)c(F)c1F` (stereo unspecified): the Ki at Carbonic anhydrase 2, at Carbonic anhydrase 1 and on Carbonic anhydrase 4 was greater than 200 nM in each case.

In the case of `O=C(CNS(=O)(=O)C(F)(F)C(F)(F)C(F)(F)C(F)(F)F)NO`, the Ki at Carbonic anhydrase 2 was 15 nM; at Carbonic anhydrase 1, 18 nM; on Carbonic anhydrase 4, 16 nM.

In the case of `CC(C(=O)NO)N(Cc1ccccc1[N+](=O)[O-])S(=O)(=O)c1c(F)c(F)c(F)c(F)c1F` (stereo unspecified), the Ki was 160 nM at Carbonic anhydrase 2, greater than 200 nM on Carbonic anhydrase 1 and greater than 200 nM at Carbonic anhydrase 4.

Regarding `O=S(=O)(NO)C(F)(F)C(F)(F)C(F)(F)C(F)(F)C(F)(F)C(F)(F)C(F)(F)C(F)(F)F`, the inhibitory constant (Ki) at Carbonic anhydrase 2 is 9 nM; at Carbonic anhydrase 1, 1600 nM; at Carbonic anhydrase 4 it was 21 nM.

As to `CC(=O)Nc1ccc(S(=O)(=O)NO)cc1`, the Ki is 29 nM at Carbonic anhydrase 2, 40000 nM at Carbonic anhydrase 1 and 40 nM on Carbonic anhydrase 4.

As to `O=[N+]([O-])c1ccc(S(=O)(=O)NO)cc1`, the Ki amounted to 9 nM at Carbonic anhydrase 2, 57000 nM at Carbonic anhydrase 1 and 70 nM at Carbonic anhydrase 4.

`COc1ccc(S(=O)(=O)N(Cc2ccc([N+](=O)[O-])cc2)C(C)C(=O)NO)cc1` (stereo unspecified): the Ki on Carbonic anhydrase 2, on Carbonic anhydrase 1 and on Carbonic anhydrase 4 was greater than 200 nM in each case.

As to `COc1ccc(S(=O)(=O)NCC(=O)NO)cc1`, the Ki at Carbonic anhydrase 2 was 32 nM; on Carbonic anhydrase 1 it was 30 nM; at Carbonic anhydrase 4, 29 nM.

On to `COc1ccc(S(=O)(=O)N(Cc2ccccc2Cl)C(C)C(=O)NO)cc1` (stereo unspecified), for which the Ki on Carbonic anhydrase 2, at Carbonic anhydrase 1 and at Carbonic anhydrase 4 was greater than 200 nM throughout.

As to `COc1ccc(S(=O)(=O)NC(C(=O)NO)C(C)C)cc1` (stereo unspecified), the Ki on Carbonic anhydrase 2 came out at 39 nM; on Carbonic anhydrase 1 it was 33 nM; on Carbonic anhydrase 4, 38 nM.

Take `O=C(CN(Cc1ccc([N+](=O)[O-])cc1)S(=O)(=O)C(F)(F)C(F)(F)C(F)(F)C(F)(F)F)NO`: the Ki on Carbonic anhydrase 2 was 118 nM; on Carbonic anhydrase 1, greater than 200 nM; at Carbonic anhydrase 4, 136 nM.

In the case of `O=S(=O)(NO)c1ccc(Br)cc1`, the Ki at Carbonic anhydrase 2 came out at 18 nM; on Carbonic anhydrase 1, 38000 nM; at Carbonic anhydrase 4, 39 nM.

As for `CC(C)CC(NS(=O)(=O)c1c(F)c(F)c(F)c(F)c1F)C(=O)NO` (stereo unspecified), the figures for the Ki on Carbonic anhydrase 2, at Carbonic anhydrase 1 and at Carbonic anhydrase 4 were 11 nM, 10 nM and 19 nM, respectively.

`Cc1cc(C)c(S(=O)(=O)NO)c(C)c1`: the Ki on Carbonic anhydrase 2 came out at 62 nM; on Carbonic anhydrase 1, 72000 nM; at Carbonic anhydrase 4, 156 nM.

Consider `O=S(=O)(NO)C(F)(F)F`, for which the Ki at Carbonic anhydrase 2 was found to be 30 nM; on Carbonic anhydrase 1, 20000 nM; at Carbonic anhydrase 4 it was 16 nM.

Consider `O=C(CN(Cc1ccc([N+](=O)[O-])cc1)S(=O)(=O)c1c(F)c(F)c(F)c(F)c1F)NO`, for which the Ki at Carbonic anhydrase 2 was 107 nM; on Carbonic anhydrase 1 it was 150 nM; at Carbonic anhydrase 4, 130 nM.

As for `CS(=O)(=O)NO`, the Ki at Carbonic anhydrase 2 is 4.7 nM; at Carbonic anhydrase 4 it was 56 nM.

Consider `CC(NS(=O)(=O)c1c(F)c(F)c(F)c(F)c1F)C(=O)NO` (stereo unspecified), for which the results for the Ki at Carbonic anhydrase 2, at Carbonic anhydrase 1 and on Carbonic anhydrase 4 were 8 nM, 7 nM and 10 nM, respectively.

As to `COc1ccc(S(=O)(=O)N(Cc2ccccc2)C(C)C(=O)NO)cc1` (stereo unspecified), the Ki at Carbonic anhydrase 2 was determined as 120 nM; at Carbonic anhydrase 1, 195 nM; at Carbonic anhydrase 4 it was 136 nM.

`O=S(=O)(NO)c1ccccc1`: the Ki amounted to 26 nM on Carbonic anhydrase 2, 18000 nM on Carbonic anhydrase 1 and 74 nM at Carbonic anhydrase 4.

On to `O=S(=O)(NO)c1c(F)c(F)c(F)c(F)c1F`, for which the results for the Ki at Carbonic anhydrase 2, at Carbonic anhydrase 1 and on Carbonic anhydrase 4 were 0.8 nM, 30000 nM and 13 nM, respectively.

Regarding `O=[N+]([O-])c1ccc(S(=O)(=O)NO)cc1Cl`, the Ki is 4 nM at Carbonic anhydrase 2, 17000 nM at Carbonic anhydrase 1 and 12 nM on Carbonic anhydrase 4.

As to `O=S(=O)(NO)c1ccc(I)cc1`, the Ki on Carbonic anhydrase 2 came to 13 nM; on Carbonic anhydrase 1 it was 15000 nM; on Carbonic anhydrase 4, 45 nM.

Regarding `O=C(CNS(=O)(=O)c1c(F)c(F)c(F)c(F)c1F)NO`, the Ki at Carbonic anhydrase 2 was determined as 8 nM; on Carbonic anhydrase 1 it was 7 nM; on Carbonic anhydrase 4, 10 nM.

For `O=S(=O)(NO)C(F)(F)C(F)(F)C(F)(F)C(F)(F)F`, the figures for the Ki at Carbonic anhydrase 2, on Carbonic anhydrase 1 and at Carbonic anhydrase 4 were 15 nM, 1800 nM and 27 nM, respectively.

With `CN(C)S(=O)(=O)NO`, the Ki at Carbonic anhydrase 2 amounted to 40 nM; on Carbonic anhydrase 1, 12000 nM; on Carbonic anhydrase 4 it was 290 nM.

As to `CC(C(=O)NO)N(Cc1ccccc1)S(=O)(=O)C(F)(F)C(F)(F)C(F)(F)C(F)(F)F` (stereo unspecified), the Ki was 92 nM at Carbonic anhydrase 2, 121 nM on Carbonic anhydrase 1 and 107 nM at Carbonic anhydrase 4.

As for `COc1ccc(S(=O)(=O)NC(CC(C)C)C(=O)NO)cc1` (stereo unspecified), the results for the Ki on Carbonic anhydrase 2, on Carbonic anhydrase 1 and on Carbonic anhydrase 4 were 5 nM, 50 nM and 39 nM, respectively.

In the case of `COc1ccc(S(=O)(=O)N(CC(=O)NO)Cc2ccccc2)cc1`, the Ki on Carbonic anhydrase 2 is 120 nM; on Carbonic anhydrase 1, greater than 200 nM; at Carbonic anhydrase 4, 145 nM.

For the compound `CC(C(=O)NO)N(Cc1ccccc1[N+](=O)[O-])S(=O)(=O)C(F)(F)C(F)(F)C(F)(F)C(F)(F)F` (stereo unspecified), the Ki at Carbonic anhydrase 2, at Carbonic anhydrase 1 and on Carbonic anhydrase 4 was greater than 200 nM throughout.

Consider `COc1ccc(S(=O)(=O)N(Cc2ccccc2[N+](=O)[O-])C(C)C(=O)NO)cc1` (stereo unspecified), for which the Ki on Carbonic anhydrase 2, on Carbonic anhydrase 1 and on Carbonic anhydrase 4 was greater than 200 nM each time.

Turning to `O=S(=O)(NO)C(Cl)(Cl)Cl`, the Ki on Carbonic anhydrase 2 came to 150 nM; at Carbonic anhydrase 1 it was 23000 nM; at Carbonic anhydrase 4, 210 nM.

`COc1ccc(S(=O)(=O)NO)cc1`: the Ki on Carbonic anhydrase 2 is 51 nM; on Carbonic anhydrase 1, 68000 nM; on Carbonic anhydrase 4, 110 nM.

For the compound `CC(NS(=O)(=O)C(F)(F)C(F)(F)C(F)(F)C(F)(F)F)C(=O)NO` (stereo unspecified), the Ki at Carbonic anhydrase 2 was determined as 16 nM; at Carbonic anhydrase 1, 21 nM; at Carbonic anhydrase 4, 17 nM.

Take `CC(C(=O)NO)N(Cc1ccccc1)S(=O)(=O)c1c(F)c(F)c(F)c(F)c1F` (stereo unspecified): the Ki at Carbonic anhydrase 2 is 38 nM; on Carbonic anhydrase 1, 84 nM; on Carbonic anhydrase 4 it was 43 nM.

In the case of `CC(C)CC(C(=O)NO)N(Cc1ccccc1)S(=O)(=O)C(F)(F)C(F)(F)C(F)(F)C(F)(F)F` (stereo unspecified), the inhibition constant (Ki) on Carbonic anhydrase 2 was found to be 116 nM; on Carbonic anhydrase 1, 180 nM; at Carbonic anhydrase 4, 139 nM.

For the compound `O=C(CN(Cc1ccccc1)S(=O)(=O)c1c(F)c(F)c(F)c(F)c1F)NO`, the Ki at Carbonic anhydrase 2 stood at 36 nM; on Carbonic anhydrase 1, 90 nM; at Carbonic anhydrase 4 it was 42 nM.

For the compound `COc1ccc(S(=O)(=O)N(Cc2ccccc2)C(CC(C)C)C(=O)NO)cc1` (stereo unspecified), the Ki at Carbonic anhydrase 2 was greater than 200 nM; at Carbonic anhydrase 1, greater than 200 nM; on Carbonic anhydrase 4 it was 190 nM.

Take `O=C(CN(Cc1ccccc1)S(=O)(=O)C(F)(F)C(F)(F)C(F)(F)C(F)(F)F)NO`: the inhibitory constant (Ki) at Carbonic anhydrase 2 is 85 nM; on Carbonic anhydrase 1 it was 105 nM; on Carbonic anhydrase 4 it was 100 nM.

In the case of `COc1ccc(S(=O)(=O)N(CC(=O)NO)Cc2ccccc2[N+](=O)[O-])cc1`, the results for the Ki at Carbonic anhydrase 2, on Carbonic anhydrase 1 and on Carbonic anhydrase 4 were 170 nM, greater than 200 nM and 140 nM, respectively.

Take `CC(C)CC(NS(=O)(=O)C(F)(F)C(F)(F)C(F)(F)C(F)(F)F)C(=O)NO` (stereo unspecified): the Ki stood at 18 nM on Carbonic anhydrase 2 and 30 nM on Carbonic anhydrase 4.

For the compound `COc1ccc(S(=O)(=O)NC(C)C(=O)NO)cc1` (stereo unspecified), the Ki on Carbonic anhydrase 2 was 35 nM; on Carbonic anhydrase 1, 32 nM; at Carbonic anhydrase 4, 30 nM.

On to `CC(C)C(NS(=O)(=O)C(F)(F)C(F)(F)C(F)(F)C(F)(F)F)C(=O)NO` (stereo unspecified), for which the Ki came out at 15 nM on Carbonic anhydrase 2, 29 nM on Carbonic anhydrase 1 and 20 nM at Carbonic anhydrase 4.

For the compound `O=C(O)c1ccccc1S(=O)(=O)NO`, the values for the Ki on Carbonic anhydrase 2, at Carbonic anhydrase 1 and at Carbonic anhydrase 4 were 0.9 nM, 25000 nM and 12 nM, respectively.

Turning to `Nc1ccc(S(=O)(=O)NO)cc1`, the results for the Ki at Carbonic anhydrase 2, on Carbonic anhydrase 1 and at Carbonic anhydrase 4 were 37 nM, 62000 nM and 55 nM, respectively.

For `O=[N+]([O-])c1cccc(S(=O)(=O)NO)c1`, the Ki stood at 5 nM on Carbonic anhydrase 2, 17000 nM at Carbonic anhydrase 1 and 24 nM on Carbonic anhydrase 4.

Take `Cc1ccc(S(=O)(=O)NO)cc1`: the Ki at Carbonic anhydrase 2 came to 70 nM; at Carbonic anhydrase 1 it was 51000 nM; at Carbonic anhydrase 4, 127 nM.

In the case of `O=S(=O)(NO)c1ccc(Cl)cc1`, the Ki is 21 nM at Carbonic anhydrase 2, 27000 nM at Carbonic anhydrase 1 and 120 nM at Carbonic anhydrase 4.

Turning to `COc1ccc(S(=O)(=O)NO)cc1N`, the inhibitory constant (Ki) at Carbonic anhydrase 2 was 44 nM; on Carbonic anhydrase 1, 41000 nM; on Carbonic anhydrase 4, 136 nM.

Consider `CC(C)C(C(=O)NO)N(Cc1ccccc1)S(=O)(=O)c1c(F)c(F)c(F)c(F)c1F` (stereo unspecified), for which the Ki at Carbonic anhydrase 2 stood at 45 nM; at Carbonic anhydrase 1, 88 nM; on Carbonic anhydrase 4, 48 nM.

Turning to `O=S(=O)(NO)c1ccc(F)cc1`, the results for the Ki at Carbonic anhydrase 2, on Carbonic anhydrase 1 and at Carbonic anhydrase 4 were 19 nM, 15000 nM and 90 nM, respectively.

As to `O=S(=O)(NO)c1cccc(C(F)(F)F)c1`, the Ki was 1.1 nM on Carbonic anhydrase 2, 33000 nM on Carbonic anhydrase 1 and 16 nM at Carbonic anhydrase 4.

Regarding `CC(C)C(NS(=O)(=O)c1c(F)c(F)c(F)c(F)c1F)C(=O)NO` (stereo unspecified), the Ki on Carbonic anhydrase 2 came out at 11 nM; on Carbonic anhydrase 1, 8 nM; on Carbonic anhydrase 4, 13 nM.

Consider `CC(C(=O)NO)N(Cc1ccc([N+](=O)[O-])cc1)S(=O)(=O)c1c(F)c(F)c(F)c(F)c1F` (stereo unspecified), for which the Ki on Carbonic anhydrase 2, at Carbonic anhydrase 1 and at Carbonic anhydrase 4 was greater than 200 nM each time.

Regarding `CC(C)CC(C(=O)NO)N(Cc1ccccc1)S(=O)(=O)c1c(F)c(F)c(F)c(F)c1F` (stereo unspecified), the Ki amounted to 56 nM on Carbonic anhydrase 2, 100 nM on Carbonic anhydrase 1 and 75 nM at Carbonic anhydrase 4.

Take `O=C(CN(Cc1ccccc1[N+](=O)[O-])S(=O)(=O)c1c(F)c(F)c(F)c(F)c1F)NO`: the results for the Ki at Carbonic anhydrase 2, at Carbonic anhydrase 1 and at Carbonic anhydrase 4 were 74 nM, 127 nM and 49 nM, respectively.
